According to ChEMBL document CHEMBL4814033, “Unique para-aminobenzenesulfonyl oxadiazoles as novel structural potential membrane active antibacterial agents towards drug-resistant methicillin resistant Staphylococcus aureus” (2021):
Converted amounts (≈) assume the structure as drawn. The source made the active and inactive calls. The calls are words filed in the database; no cut-off is given here.

Each compound was assayed on Staphylococcus aureus (assay: Antibacterial activity against methicillin-resistant Staphylococcus aureus by broth microdilution assay). Settings: not given.
Assay type: functional

| SMILES | MIC |
| --- | --- |
| CCOC(=O)CSc1nnc(CS(=O)(=O)c2ccc(NC(C)=O)cc2)o1 | 16 µg/mL (≈ 40.1 µM) |
| CCCCCCSc1nnc(CS(=O)(=O)c2ccc(NC(C)=O)cc2)o1 | 1 µg/mL (≈ 2.52 µM) |
| CC(=O)CSc1nnc(CS(=O)(=O)c2ccc(NC(C)=O)cc2)o1 | 2 µg/mL (≈ 5.41 µM) |
| C#CCSc1nnc(CS(=O)(=O)c2ccc(NC(C)=O)cc2)o1 | 8 µg/mL (≈ 22.8 µM) |

The compounds below were run on Enterococcus faecalis (assay: Antibacterial activity against Enterococcus faecalis by broth microdilution assay). Settings: not given.
Assay type: functional

| SMILES | MIC |
| --- | --- |
| CCOC(=O)CSc1nnc(CS(=O)(=O)c2ccc(NC(C)=O)cc2)o1 | 128 µg/mL (≈ 320 µM) |
| CCCCCCSc1nnc(CS(=O)(=O)c2ccc(NC(C)=O)cc2)o1 | 128 µg/mL (≈ 322 µM) |
| CC(=O)CSc1nnc(CS(=O)(=O)c2ccc(NC(C)=O)cc2)o1 | 64 µg/mL (≈ 173 µM) |
| C#CCSc1nnc(CS(=O)(=O)c2ccc(NC(C)=O)cc2)o1 | 128 µg/mL (≈ 364 µM) |

These compounds were tested on Staphylococcus aureus (assay: Antibacterial activity against Staphylococcus aureus by broth microdilution assay). Settings: not given.
Assay type: functional

| SMILES | MIC |
| --- | --- |
| CCOC(=O)CSc1nnc(CS(=O)(=O)c2ccc(NC(C)=O)cc2)o1 | 128 µg/mL (≈ 320 µM) |
| CCCCCCSc1nnc(CS(=O)(=O)c2ccc(NC(C)=O)cc2)o1 | 256 µg/mL (≈ 644 µM) |
| CC(=O)CSc1nnc(CS(=O)(=O)c2ccc(NC(C)=O)cc2)o1 | 64 µg/mL (≈ 173 µM) |
| C#CCSc1nnc(CS(=O)(=O)c2ccc(NC(C)=O)cc2)o1 | 64 µg/mL (≈ 182 µM) |

These compounds were tested on Staphylococcus aureus (assay: Antibacterial activity against Staphylococcus aureus ATCC 25923 by broth microdilution assay). Settings: not given.
Assay type: functional

| SMILES | MIC |
| --- | --- |
| CCOC(=O)CSc1nnc(CS(=O)(=O)c2ccc(NC(C)=O)cc2)o1 | 64 µg/mL (≈ 160 µM) |
| CCCCCCSc1nnc(CS(=O)(=O)c2ccc(NC(C)=O)cc2)o1 | 256 µg/mL (≈ 644 µM) |
| CC(=O)CSc1nnc(CS(=O)(=O)c2ccc(NC(C)=O)cc2)o1 | 128 µg/mL (≈ 346 µM) |
| C#CCSc1nnc(CS(=O)(=O)c2ccc(NC(C)=O)cc2)o1 | 64 µg/mL (≈ 182 µM) |

The compounds below were run on Staphylococcus aureus (assay: Antibacterial activity against Staphylococcus aureus ATCC 29213 by broth microdilution assay). Settings: not given.
Assay type: functional

| SMILES | MIC |
| --- | --- |
| CCOC(=O)CSc1nnc(CS(=O)(=O)c2ccc(NC(C)=O)cc2)o1 | 64 µg/mL (≈ 160 µM) |
| CCCCCCSc1nnc(CS(=O)(=O)c2ccc(NC(C)=O)cc2)o1 | 256 µg/mL (≈ 644 µM) |
| CC(=O)CSc1nnc(CS(=O)(=O)c2ccc(NC(C)=O)cc2)o1 | 32 µg/mL (≈ 86.6 µM) |
| C#CCSc1nnc(CS(=O)(=O)c2ccc(NC(C)=O)cc2)o1 | 32 µg/mL (≈ 91.1 µM) |

The compounds below were run on Klebsiella pneumoniae (assay: Antibacterial activity against Klebsiella pneumonia by broth microdilution assay). Settings: not given.
Assay type: functional

| SMILES | MIC |
| --- | --- |
| CCOC(=O)CSc1nnc(CS(=O)(=O)c2ccc(NC(C)=O)cc2)o1 | 64 µg/mL (≈ 160 µM) |
| CCCCCCSc1nnc(CS(=O)(=O)c2ccc(NC(C)=O)cc2)o1 | 8 µg/mL (≈ 20.1 µM) |
| CC(=O)CSc1nnc(CS(=O)(=O)c2ccc(NC(C)=O)cc2)o1 | 16 µg/mL (≈ 43.3 µM) |
| C#CCSc1nnc(CS(=O)(=O)c2ccc(NC(C)=O)cc2)o1 | 256 µg/mL (≈ 728 µM) |

Each compound was assayed on Escherichia coli (assay: Antibacterial activity against Escherichia coli by broth microdilution assay). Settings: not given.
Assay type: functional

| SMILES | MIC |
| --- | --- |
| CCOC(=O)CSc1nnc(CS(=O)(=O)c2ccc(NC(C)=O)cc2)o1 | 32 µg/mL (≈ 80.1 µM) |
| CCCCCCSc1nnc(CS(=O)(=O)c2ccc(NC(C)=O)cc2)o1 | 256 µg/mL (≈ 644 µM) |
| CC(=O)CSc1nnc(CS(=O)(=O)c2ccc(NC(C)=O)cc2)o1 | 16 µg/mL (≈ 43.3 µM) |
| C#CCSc1nnc(CS(=O)(=O)c2ccc(NC(C)=O)cc2)o1 | 128 µg/mL (≈ 364 µM) |

These compounds were tested on Escherichia coli (assay: Antibacterial activity against Escherichia coli ATCC 25922 by broth microdilution assay). Settings: not given.
Assay type: functional

| SMILES | MIC |
| --- | --- |
| CCOC(=O)CSc1nnc(CS(=O)(=O)c2ccc(NC(C)=O)cc2)o1 | 128 µg/mL (≈ 320 µM) |
| CCCCCCSc1nnc(CS(=O)(=O)c2ccc(NC(C)=O)cc2)o1 | 128 µg/mL (≈ 322 µM) |
| CC(=O)CSc1nnc(CS(=O)(=O)c2ccc(NC(C)=O)cc2)o1 | 64 µg/mL (≈ 173 µM) |
| C#CCSc1nnc(CS(=O)(=O)c2ccc(NC(C)=O)cc2)o1 | 128 µg/mL (≈ 364 µM) |

What follows are compounds tested on Pseudomonas aeruginosa (assay: Antibacterial activity against Pseudomonas aeruginosa by broth microdilution assay). Settings: not given.
Assay type: functional

| SMILES | MIC |
| --- | --- |
| CCOC(=O)CSc1nnc(CS(=O)(=O)c2ccc(NC(C)=O)cc2)o1 | 64 µg/mL (≈ 160 µM) |
| CCCCCCSc1nnc(CS(=O)(=O)c2ccc(NC(C)=O)cc2)o1 | 256 µg/mL (≈ 644 µM) |
| CC(=O)CSc1nnc(CS(=O)(=O)c2ccc(NC(C)=O)cc2)o1 | 64 µg/mL (≈ 173 µM) |
| C#CCSc1nnc(CS(=O)(=O)c2ccc(NC(C)=O)cc2)o1 | 64 µg/mL (≈ 182 µM) |

The compounds below were run on Pseudomonas aeruginosa (assay: Antibacterial activity against Pseudomonas aeruginosa ATCC 27853 by broth microdilution assay). Settings: not given.
Assay type: functional

| SMILES | MIC |
| --- | --- |
| CCOC(=O)CSc1nnc(CS(=O)(=O)c2ccc(NC(C)=O)cc2)o1 | 128 µg/mL (≈ 320 µM) |
| CCCCCCSc1nnc(CS(=O)(=O)c2ccc(NC(C)=O)cc2)o1 | 256 µg/mL (≈ 644 µM) |
| CC(=O)CSc1nnc(CS(=O)(=O)c2ccc(NC(C)=O)cc2)o1 | 128 µg/mL (≈ 346 µM) |
| C#CCSc1nnc(CS(=O)(=O)c2ccc(NC(C)=O)cc2)o1 | 256 µg/mL (≈ 728 µM) |

What follows are compounds tested on Acinetobacter baumannii (assay: Antibacterial activity against Acinetobacter baumannii by broth microdilution assay). Settings: not given.
Assay type: functional

| SMILES | MIC |
| --- | --- |
| CCOC(=O)CSc1nnc(CS(=O)(=O)c2ccc(NC(C)=O)cc2)o1 | 32 µg/mL (≈ 80.1 µM) |
| CCCCCCSc1nnc(CS(=O)(=O)c2ccc(NC(C)=O)cc2)o1 | 32 µg/mL (≈ 80.5 µM) |
| CC(=O)CSc1nnc(CS(=O)(=O)c2ccc(NC(C)=O)cc2)o1 | 64 µg/mL (≈ 173 µM) |
| C#CCSc1nnc(CS(=O)(=O)c2ccc(NC(C)=O)cc2)o1 | 128 µg/mL (≈ 364 µM) |

What follows are compounds tested on Staphylococcus aureus (assay: Potency index, ratio of MIC of norfloxacin to MIC of compound for antibacterial activity against methicillin-resistant Staphylococcus aureus by broth microdilution assay). Settings: not given.
Assay type: functional

| SMILES | Ratio |
| --- | --- |
| CCCCCCSc1nnc(CS(=O)(=O)c2ccc(NC(C)=O)cc2)o1 | 16 |

These compounds were tested on Staphylococcus aureus (assay: Antibacterial activity against methicillin-resistant Staphylococcus aureus assessed as reduction in bacterial growth measured after 16 passages). Settings: not given.
Assay type: functional, organism-based

| SMILES | Activity |
| --- | --- |
| CCCCCCSc1nnc(CS(=O)(=O)c2ccc(NC(C)=O)cc2)o1 | Active |

Each compound was assayed on Cell membrane (assay: Disruption of inner cell membrane in methicillin-resistant Staphylococcus aureus at 4 times of MIC measured within 14 mins by PI uptake assay). Settings: not given.
Assay type: subcellular

| SMILES | Activity |
| --- | --- |
| CCCCCCSc1nnc(CS(=O)(=O)c2ccc(NC(C)=O)cc2)o1 | Active |

What follows are compounds tested on Calf thymus DNA (assay: Binding affinity to calf thymus DNA assessed as red shift in absorption spectra upto 26.7 uM by UV-vis absorption spectroscopy). Settings: Bos taurus, dose microM <=26.7.
Assay type: tissue-based

| SMILES | Activity |
| --- | --- |
| CCCCCCSc1nnc(CS(=O)(=O)c2ccc(NC(C)=O)cc2)o1 | Active |

What follows are compounds tested on Calf thymus DNA (assay: Binding affinity to calf thymus DNA assessed as reduction in fluorescence intensity of DNA-AO complex by AO dye based fluorescence analysis). Settings: Bos taurus.

| SMILES | Activity |
| --- | --- |
| CCCCCCSc1nnc(CS(=O)(=O)c2ccc(NC(C)=O)cc2)o1 | Active |

These compounds were tested on Calf thymus DNA (assay: Binding affinity to calf thymus DNA assessed as enhancement in maximum absorption of DNA upto 26.7 uM by UV-vis absorption spectroscopy). Settings: Bos taurus, dose microM <=26.7.
Assay type: tissue-based

| SMILES | Activity |
| --- | --- |
| CCCCCCSc1nnc(CS(=O)(=O)c2ccc(NC(C)=O)cc2)o1 | Active |

The compounds below were run on Staphylococcus aureus (assay: Antibacterial activity against methicillin-resistant Staphylococcus aureus assessed as metabolic inactivation by Alamar blue assay). Settings: not given.
Assay type: functional, organism-based

| SMILES | Activity |
| --- | --- |
| CCCCCCSc1nnc(CS(=O)(=O)c2ccc(NC(C)=O)cc2)o1 | Active |
